Results: the NIST ThermoML archive (doi:10.1021/je400510j)
“And” between values parts separate entries of the source, which are not always exact repeats. Equal entries are not always repeated. ± gives the expanded uncertainty stated by the source.

Conditions: Liquid; for mass density: 101.33 kPa, Vibrating tube method; for vapor or sublimation pressure: Closed cell (Static) method

SMILES: CO[PH](=O)[O-].Cn1cc[n+](C)c1 [1,3-dimethylimidazolium methyl phosphonate]
- mass density (298.15 K): 1230.6 ± 1.3 kg/m3
- mass density (299.45 K): 1229.8 ± 1.3 kg/m3
- mass density (300.75 K): 1229.3 ± 1.3 kg/m3
- mass density (302.15 K): 1228.6 ± 1.3 kg/m3
- mass density (303.45 K): 1227.9 ± 1.3 kg/m3
- mass density (304.75 K): 1227.3 ± 1.3 kg/m3
- mass density (305.85 K): 1226.6 ± 1.3 kg/m3
- mass density (307.15 K): 1225.8 ± 1.3 kg/m3
- mass density (308.65 K): 1224.9 ± 1.3 kg/m3
- mass density (310.35 K): 1223.9 ± 1.3 kg/m3
- mass density (311.75 K): 1223.1 ± 1.3 kg/m3
- mass density (313.05 K): 1222.4 ± 1.3 kg/m3
- mass density (314.45 K): 1221.5 ± 1.3 kg/m3
- mass density (315.85 K): 1220.7 ± 1.3 kg/m3
- mass density (317.25 K): 1219.9 ± 1.3 kg/m3
- mass density (318.75 K): 1219.2 ± 1.3 kg/m3

SMILES: c1ccncc1 [pyridine]
- vapor or sublimation pressure (288.15 K): 1.65 ± 0.1 kPa and 1.72 ± 0.1 kPa
- vapor or sublimation pressure (293.15 K): 2.2 ± 0.1 kPa and 2.25 ± 0.1 kPa
- vapor or sublimation pressure (298.15 K): 2.83 ± 0.11 kPa and 2.85 ± 0.11 kPa
- vapor or sublimation pressure (303.15 K): 3.45 ± 0.11 kPa

SMILES: c1ccsc1 [thiophene]
- vapor or sublimation pressure (288.15 K): 6.78 ± 0.13 kPa and 6.75 ± 0.13 kPa
- vapor or sublimation pressure (293.15 K): 8.7 ± 0.13 kPa and 8.74 ± 0.13 kPa
- vapor or sublimation pressure (298.15 K): 10.37 ± 0.13 kPa and 10.58 ± 0.14 kPa
- vapor or sublimation pressure (303.15 K): 12.98 ± 0.15 kPa

SMILES: Cc1ccccc1 [toluene]
- vapor or sublimation pressure (288.15 K): 2.42 ± 0.11 kPa and 2.35 ± 0.11 kPa
- vapor or sublimation pressure (293.15 K): 3.18 ± 0.11 kPa and 3.05 ± 0.11 kPa
- vapor or sublimation pressure (298.15 K): 3.84 ± 0.11 kPa
- vapor or sublimation pressure (303.15 K): 4.73 ± 0.11 kPa

SMILES: O [water]
- vapor or sublimation pressure (283.15 K): 1.27 ± 0.1 kPa
- vapor or sublimation pressure (288.15 K): 1.73 ± 0.11 kPa
- vapor or sublimation pressure (293.15 K): 2.33 ± 0.11 kPa
- vapor or sublimation pressure (298.15 K): 3.2 ± 0.11 kPa
